Experimental data: the CheMixHub viscosity set
Several values for one entry are separate records, joined by “and”; a condition that tells them apart may be missing. Identical values can stand only once. ± gives the uncertainty stated by the source.

Tests used:
[1] = xn = mol fraction of the nth substance listed

C1CC[NH2+]C1.CCCCCCCC(=O)[O-]
101 kPa
Conditions	viscosity [mPa·s]
293.15 K	72.2 ± 15
298.15 K	62.71 ± 13
303.15 K	50.21 ± 10
308.15 K	42.89 ± 8.7
313.15 K	35.27 ± 7.1

CC(=O)O.CC(=O)[O-].CC[NH+](CC)CCO
101 kPa
Conditions	viscosity [mPa·s]
293.15 K	110.4 ± 3.1
298.15 K	80.19 ± 2.1
303.15 K	59.63 ± 1.6
308.15 K	45.32 ± 1.2
313.15 K	35.12 ± 0.92
318.15 K	27.71 ± 0.73
323.15 K	22.22 ± 0.58

CCC(C)O (configuration not stated)
viscosity
Conditions	293.15 K	298.15 K	303 K	303.15 K	308.15 K	318.15 K	323.15 K
100 kPa	4.036 ± 0.012 mPa·s	–	–	–	–	–	1.626 ± 0.0049 mPa·s
101 kPa	–	–	–	2.742 ± 0.022 mPa·s and 2.27 ± 0.6 mPa·s and 2.741 ± 0.032 mPa·s	2 ± 0.6 mPa·s and 2.179 ± 0.034 mPa·s	1.58 ± 0.6 mPa·s and 1.566 ± 0.025 mPa·s	1.41 ± 0.6 mPa·s
101.3 kPa	–	–	–	3.177 ± 0.036 mPa·s	2.582 ± 0.016 mPa·s	–	–
101.33 kPa	3.647 ± 0.032 mPa·s	2.925 ± 0.035 mPa·s and 2.857 ± 0.025 mPa·s	2.195 ± 0.23 mPa·s	2.417 ± 0.029 mPa·s and 2.741 ± 0.032 mPa·s	2.034 ± 0.2 mPa·s and 2.011 ± 0.024 mPa·s	1.62 mPa·s	–

CCCCOCCOCCO
viscosity
Conditions	298.15 K	303.15 K	308.15 K	318.15 K
100 kPa	5.11 ± 0.15 mPa·s	4.345 ± 0.15 mPa·s	3.872 ± 0.15 mPa·s	–
101 kPa	4.877 ± 0.065 mPa·s	–	3.582 ± 0.048 mPa·s	2.943 ± 0.038 mPa·s
101.33 kPa	5.232 ± 0.057 mPa·s and 5.232 ± 0.12 mPa·s	–	–	–

CCCCn1cc[n+](C)c1.F[B-](F)(F)F
viscosity
Conditions	293.15 K	295.2 K	303.15 K	308.15 K	313.15 K	318.15 K	323.15 K
101 kPa	133.5 ± 4.5 mPa·s and 127.6 ± 8.5 mPa·s	122.9 ± 19 mPa·s	–	65 ± 1.3 mPa·s and 61.5 ± 7.9 mPa·s and 58.36 ± 3.5 mPa·s	52.2 ± 1.1 mPa·s and 50.52 ± 0.74 mPa·s and 46.22 ± 2.8 mPa·s	42.6 ± 0.9 mPa·s and 38.72 ± 2.3 mPa·s	34.52 ± 0.56 mPa·s
101.33 kPa	125.3 ± 19 mPa·s	–	81.85 ± 3.4 mPa·s and 87.7 ± 13 mPa·s	63.57 ± 2.6 mPa·s and 72.5 ± 11 mPa·s	57.7 ± 8.7 mPa·s	–	34.8 ± 1.4 mPa·s

Cc1ccc(O)cc1
Conditions	viscosity
293.15 K, 101 kPa	18.95 ± 0.32 mPa·s
298.15 K, 101 kPa	13.93 ± 0.99 mPa·s and 14.74 ± 0.24 mPa·s
313.15 K, 101.3 kPa	6.661 ± 0.081 mPa·s
318.15 K, 101 kPa	5.795 ± 0.48 mPa·s and 5.292 ± 0.039 mPa·s (2×)
323.15 K, 101.3 kPa	4.48 ± 0.056 mPa·s
323.15 K, 101.33 kPa	4.62 ± 0.046 mPa·s

Cc1cccc(C)c1
Conditions	viscosity
293.15 K, 100 kPa	0.614 ± 0.03 mPa·s
293.15 K, 101 kPa	0.5522 ± 0.0085 mPa·s and 0.627 ± 0.013 mPa·s
298.15 K, 101 kPa	0.5821 ± 0.0073 mPa·s and 0.5848 ± 0.016 mPa·s
298.15 K, 101.3 kPa	0.586 ± 0.016 mPa·s and 0.58 ± 0.016 mPa·s
303 K, 101 kPa	0.5456 ± 0.0046 mPa·s and 0.5455 ± 0.0046 mPa·s
303.15 K, 101.3 kPa	0.543 ± 0.015 mPa·s and 0.548 ± 0.015 mPa·s and 0.5471 ± 0.015 mPa·s
303.15 K, 101.33 kPa	0.555 ± 0.006 mPa·s
308.15 K, 100 kPa	0.4712 ± 0.057 mPa·s
308.15 K, 101 kPa	0.5329 ± 0.0055 mPa·s
308.15 K, 101.3 kPa	0.519 ± 0.015 mPa·s
308.15 K, 101.33 kPa	0.5218 ± 0.0067 mPa·s and 0.542 ± 0.004 mPa·s and 0.527 ± 0.005 mPa·s
308.5 K, 101 kPa	0.547 ± 0.015 mPa·s
313 K, 101 kPa	0.4931 ± 0.0042 mPa·s and 0.492 ± 0.0042 mPa·s
313.15 K, 100 kPa	0.492 ± 0.03 mPa·s
313.15 K, 101 kPa	0.4463 ± 0.0073 mPa·s and 0.522 ± 0.014 mPa·s and 0.4923 ± 0.0091 mPa·s
313.15 K, 101.3 kPa	0.49 ± 0.014 mPa·s
323 K, 101 kPa	0.4487 ± 0.0039 mPa·s
323.15 K, 101 kPa	0.3949 ± 0.0068 mPa·s and 0.4488 ± 0.013 mPa·s
323.15 K, 101.3 kPa	0.439 ± 0.013 mPa·s

Nc1ccccc1Cl
viscosity
Conditions	298.15 K	303.15 K	308.15 K	313.15 K	318.15 K
100 kPa	4.209 ± 0.089 mPa·s	3.825 ± 0.081 mPa·s	3.413 ± 0.072 mPa·s	3.06 ± 0.065 mPa·s	2.762 ± 0.059 mPa·s
101 kPa	2.973 ± 0.029 mPa·s and 2.974 ± 0.027 mPa·s	–	–	–	–

Cc1ccc(O)cc1 + c1ccccc1
[1], 308.15 K, 101 kPa
Conditions	viscosity [mPa·s]
x1 = 0.0751	0.6025 ± 0.0052
x1 = 0.1778	0.749 ± 0.0063
x1 = 0.292	0.9762 ± 0.008
x1 = 0.4109	1.327 ± 0.011
x1 = 0.532	1.87 ± 0.015
x1 = 0.6653	2.706 ± 0.021
x1 = 0.7851	4.175 ± 0.031
x1 = 0.8374	4.963 ± 0.037
x1 = 0.9459	7.462 ± 0.051

O=S1(=O)CCCC1 + c1ccccc1
viscosity [mPa·s], [1]
Conditions	303.15 K	313.15 K	323.15 K
101 kPa, x1 = 0.0944	0.7133 ± 0.0063	0.6194 ± 0.0056	0.5441 ± 0.005
101 kPa, x1 = 0.1855	0.8992 ± 0.0086	0.7737 ± 0.0075	0.6751 ± 0.0067
101 kPa, x1 = 0.2522	1.074 ± 0.011	0.9112 ± 0.0096	0.7919 ± 0.0084
101 kPa, x1 = 0.2849	1.162 ± 0.013	0.9889 ± 0.011	0.8556 ± 0.0095
101 kPa, x1 = 0.3829	1.504 ± 0.019	1.267 ± 0.016	1.085 ± 0.014
101 kPa, x1 = 0.4835	1.976 ± 0.029	1.648 ± 0.024	1.396 ± 0.02
101 kPa, x1 = 0.5905	2.694 ± 0.045	2.202 ± 0.037	1.855 ± 0.031
101 kPa, x1 = 0.6841	3.563 ± 0.067	2.879 ± 0.054	2.388 ± 0.045
101 kPa, x1 = 0.7917	5.014 ± 0.11	3.996 ± 0.084	3.267 ± 0.069
101 kPa, x1 = 0.8956	7.129 ± 0.17	5.619 ± 0.13	4.505 ± 0.11
101.3 kPa, x2 = 0.1417	6.075 ± 0.13	–	3.928 ± 0.088
101.3 kPa, x2 = 0.2777	4.003 ± 0.09	–	2.676 ± 0.061
101.3 kPa, x2 = 0.3972	2.826 ± 0.064	–	1.95 ± 0.046
101.3 kPa, x2 = 0.5062	2.066 ± 0.048	–	1.468 ± 0.035
101.3 kPa, x2 = 0.6063	1.571 ± 0.037	–	1.137 ± 0.028
101.3 kPa, x2 = 0.6976	1.2 ± 0.029	–	0.8791 ± 0.022
101.3 kPa, x2 = 0.7823	0.9625 ± 0.024	–	0.717 ± 0.019
101.3 kPa, x2 = 0.8602	0.786 ± 0.02	–	0.5933 ± 0.016
101.3 kPa, x2 = 0.9327	0.652 ± 0.017	–	0.5029 ± 0.014

Cc1ccc(O)cc1 + c1ccncc1
viscosity [mPa·s], [1], 101 kPa
Conditions	x1 = 0.163	x1 = 0.2353	x1 = 0.3282	x1 = 0.3907	x1 = 0.4666	x1 = 0.527	x1 = 0.6065	x1 = 0.6911	x1 = 0.7846	x1 = 0.881
293.15 K	1.451 ± 0.014	1.808 ± 0.018	2.535 ± 0.025	3.105 ± 0.032	4.215 ± 0.046	5.315 ± 0.06	7.365 ± 0.086	10.04 ± 0.13	13.24 ± 0.19	16.16 ± 0.25
303.15 K	1.363 ± 0.013	1.628 ± 0.015	2.115 ± 0.021	2.565 ± 0.025	3.31 ± 0.03	4.08 ± 0.04	5.265 ± 0.057	6.635 ± 0.077	7.97 ± 0.1	9.26 ± 0.13
313.15 K	1.139 ± 0.011	1.37 ± 0.013	1.727 ± 0.017	2.065 ± 0.02	2.6 ± 0.025	3.115 ± 0.03	3.83 ± 0.038	4.66 ± 0.05	5.415 ± 0.055	6.02 ± 0.06
